This is an account of results in ChEMBL document CHEMBL1201862, “PubChem BioAssay data set” (2004).

Among the test systems are A498; HCC 2998; K562; NCI-H23; OVCAR-3; OVCAR-5; SF-295; SF-539; SK-MEL-2; SN12C; SW-620; TK-10; UACC-257; UACC-62; HCT-15.
Common to all, as to assay: growth of human tumour cells (NCI), 48 h

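The compound was tested at five concentrations on cells cultured in 96-well plates, with a 48-hour exposure period. At the GI50, growth is halved.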 The source made the active and inactive calls. Cut-off read from the data, not from the text of the source: active = GI50 up to about 1.1 µM and inactive = higher.

For the molecule `O=C(Cc1ccccc1)NS(=O)(=O)c1ccccc1`, the GI50 with A498, with HCC 2998, with K562, in the test with NCI-H23, in the test on OVCAR-3 and in the test on OVCAR-5 was > 100 µM (inactive) each time. In addition, the GI50 in the test with SF-295, in the test with SF-539, with SK-MEL-2, in the test on SN12C, in the test with SW-620 and in the test on TK-10 was > 100 µM (inactive) throughout. Also, the GI50 in the test on UACC-257 and with UACC-62 was > 100 µM (inactive) in each case.
Regarding `COC1=C(C(=O)OC(C)(C)C)[C@]2(C)C(C(=O)OC(C)(C)C)C(OC)=C(C(=O)OC(C)(C)C)[C@]2(C)C1C(=O)OC(C)(C)C` (stereo partly drawn), the GI50 was > 100 µM (inactive) in the test on A498; > 100 µM (inactive) in the test on HCC 2998; 53 µM in the test with HCT-15; 37.5 µM (inactive) in the test on K562; > 100 µM (inactive) in the test with NCI-H23; 29.3 µM (inactive) in the test on OVCAR-3. Moreover, the GI50 was > 100 µM (inactive) in the test on OVCAR-5; 83.4 µM (inactive) in the test on SF-295; > 100 µM (inactive) with SF-539; > 100 µM (inactive) in the test with SK-MEL-2; > 100 µM (inactive) in the test with SN12C; > 100 µM (inactive) in the test on SW-620. Also, the GI50 is > 100 µM (inactive) in the test with TK-10, 28.2 µM (inactive) in the test on UACC-257 and > 100 µM (inactive) in the test with UACC-62.
Regarding `CC12C(=O)N(CCN)C(=O)C1C1c3ccccc3C2c2ccccc21` (stereo not drawn), the GI50 with A498 was > 100 µM (inactive); in the test with HCC 2998 it was > 100 µM (inactive); in the test with HCT-15 it was above 100 µM; in the test with K562 it was > 100 µM (inactive); in the test with NCI-H23 it was > 100 µM (inactive); in the test on OVCAR-3 it was > 100 µM (inactive). For the same molecule, the GI50 in the test with OVCAR-5, in the test on SF-295, in the test on SF-539, in the test with SK-MEL-2, in the test on SN12C and in the test with SW-620 was > 100 µM (inactive) each time. For the same molecule, the GI50 with TK-10, in the test on UACC-257 and with UACC-62 was > 100 µM (inactive) throughout.
Take `CN(C)c1ccc(/C=C(/NC(=O)c2ccccc2)c2nc3cc(Cl)ccc3[nH]2)cc1`: the GI50 is 72.3 µM (inactive) in the test with A498; 18.5 µM (inactive) in the test with HCC 2998; 16.6 µM with HCT-15; 19 µM (inactive) in the test on K562; 8.51 µM (inactive) in the test with NCI-H23; 0.0123 µM (active) in the test with OVCAR-3. The GI50 with OVCAR-5 was 26 µM (inactive); with SF-295, 28 µM (inactive); in the test on SF-539 it was 55.8 µM (inactive); with SK-MEL-2 it was 37.1 µM (inactive); in the test on SN12C, 47.9 µM (inactive); with SW-620, 10.4 µM (inactive). Moreover, the GI50 is 64.4 µM (inactive) in the test on TK-10, 20.3 µM (inactive) with UACC-257 and 36 µM (inactive) in the test with UACC-62.
With `Nc1ccccc1[S+]([O-])c1ccccc1` (stereo not drawn), the GI50 with A498 is > 100 µM (inactive); with HCC 2998, > 100 µM (inactive); in the test with HCT-15, above 100 µM; with K562, > 100 µM (inactive); with NCI-H23 it was > 100 µM (inactive); in the test with OVCAR-3, > 100 µM (inactive). The GI50 in the test with OVCAR-5, in the test with SF-295, with SF-539, in the test on SK-MEL-2, in the test with SN12C and in the test on SW-620 was > 100 µM (inactive) each time. Also, the GI50 in the test with TK-10 and in the test with UACC-62 was > 100 µM (inactive) each time.
